This note sets out measurements from patent publication US20070254055A1, “Therapeutic Avenanthramide Compounds” (TRUSTEES OF TUFTS COLLEGE, priority 2003, published 2007).

The test relates to COX-2. Kind of test: TNF-α induced COX-2 expression in HT29 cells, Western blot. The format is cell-based, human. The conditions noted are these: 25 μM. As for the experimental part:
Western Blot Assay: HT-29 cells were seeded into 60 mm culture dishes and cultured to 70% confluence. Medium was changed from 10% to 1% FBS medium to minimize the effects of other growth-promoting substances normally contained in serum. For COX-2 expression studies, the cells were pre-treated with different concentrations of Avns oat extract and CH3-Avn-C for 1 hr followed by stimulation with 40 ng/ml of TNF-α for 23 hr. The medium was collected and kept at −80° C. for further analyzing prostaglandin E2 (PGE2) production. For analyzing the NFkB phosphorylation, the cells were pre-treated with different concentrations of Avns oat extract and CH3-Avn-C for 23 hr followed by stimulation with 40 ng/ml of TNF-α for 20 min. For determining the COX1 expression level, the cells were treated with different concentrations of Avns oat extract and CH3-Avn-C for 24 hr. To get the whole cell lysate for western, cells were harvested in 2× protein sample buffer by scraping the cells. […] Proteins bound to the primary antibodies were detected by the enhanced chemiluminescence (ECL) detection system and quantified by densitometric scanning.
Effect of Avns on COX-2 expression: HT29 cells express a low basal level of COX-2 protein. […] The expression of COX2 was measured by Western blotting. β-Actin expression level was used as a loading control. […]
Background: In western blotting, separated proteins are transferred to a membrane and probed.

Turning to `CS(=O)(=O)Nc1ccc([N+](=O)[O-])cc1OC1CCCCC1` [NS398], the “inhibition of COX2 expression” value came out at 50%.
